The values below are quoted from earlier work in patent US8911777B2, “Pharmaceutical composition of tacrolimus” (Sigmoid Pharma Limited, priority 2007, dated 2014).

Molecules are shown by their SMILES.

For data set [1] the following is noted: whole blood; Masuda et al. 2006.
The conditions of data set [2]: after oral administration of conventional IR tablets.

As for `C=CC[C@@H]1/C=C(\C)C[C@H](C)C[C@H](OC)[C@H]2O[C@@](O)(C(=O)C(=O)N3CCCC[C@H]3C(=O)O[C@H](/C(C)=C/[C@@H]3CC[C@@H](O)[C@H](OC)C3)[C@H](C)[C@@H](O)CC1=O)[C@H](C)C[C@@H]2OC` [Tacrolimus], the “blood concentration at which adverse effects occurred” value in data set [1] was “higher than 15 ng/ml”. Also, the “persistence of drug effects” value in data set [2] is 8 to 12 h.
